Patent US20170319552A1, “ATROPISOMERS OF TRIAZOLE DERIVATIVE” (ARDEA BIOSCIENCES, INC., priority 2016, published 2017)
Like-named read-outs stand apart in the source and are kept apart here.

Experiments:
[1] = In vivo human metabolism, plasma and urine pharmacokinetics after single oral dose of racemic Compound (I)
Experimental: Plasma samples were collected prior to dosing (within 30 minutes before dosing) and at the following timepoints: 0.5, 1, 1.5, 2, 3, 4, 5, 6, 8, 10, 12, and 24 hours postdose. Urine was also collected. […] The supernatant was diluted with injection solvent and analyzed by HPLC with tandem mass spectrometry (LC/MS/MS). […] The calibration curves were linear over the concentration range between 5.00 ng/mL and 2000 ng/mL with a lower limit of quantification (LLOQ) of 5.00 ng/mL.
Using the above data, the following plasma pharmacokinetic parameters were calculated using validated Phoenix WinNonlin, version 6.3 (Pharsight Corporation, Mountain View, Calif.) and are shown (geometric mean 95% CI) in tables 11, 12, and 13 below.
• Cmax: Maximum observed concentration (μg/mL) • Tmax: Time of occurrence of maximum observed concentration (hr) • AUC0-24: Area under plasma concentration-vs-time curve, from time 0 to 24 hours postdose (μg·hr/mL) • C24: Concentration 24 hours post dose (μg/mL) • t1/2: Apparent terminal half-life (hr)

Solubility in water = assay type: physicochemical
[2] = Atropisomer interconversion, thermal challenge in aqueous solvent (dilute sodium bicarbonate); assay type: physicochemical
Experimental: (§1) The individual atropisomers of Compound (I), atropisomer 1 and atropisomer 2 (elution order from normal-phase chiral chromatography) were exposed to various conditions, including thermal challenge in both organic and aqueous media and exposure to simulated biological conditions, to ascertain whether they readily interconvert.
Atropisomer 1 was dissolved in dilute aqueous sodium bicarbonate solution. Atropisomer 2 was dissolved in dilute aqueous sodium bicarbonate solution. […] Samples of the resulting solutions were exposed to room temperature (rt), 60° C., and 100° C. for four days. After four days, the samples were concentrated to dryness (SpeedVac evaporator—DNA120, property H001630), redissolved in acetonitrile and analyzed by high performance liquid chromatography (AGMS02 Agilent 1100) on a normal phase amylose-based chiral column (ChiralPak IA-3, 3 μm, 100×4.6 mm, column 244), using isocratic elution and UV detection at 226 nm (see example 1). […] Sample chromatograms at t0, 60° C., and 100° C. after four days, are depicted in FIG. 3A, FIG. 3B and FIG. 3C respectively.

[3] = In vitro metabolism, incubations with human liver microsomes; assay type: in vitro ADME
Experimental: Human liver microsomes (0.5 mg/mL; mixed gender, ultrapooled, BD Biosciences, catalog number 452117) were incubated at 37±1° C. in 0.2 mL (final volume) of incubation mixtures containing potassium phosphate buffer (100 mM, pH7.4), MgCl2 (3 mM), NADPH (1 mM), and the atropisomers (1, 10, or 50 μM) (all experiments performed in duplicate). Stock solutions of atropisomers were prepared with DMSO at 100 mM. The final concentration of DMSO in the incubation was at or less than 0.05%. Reactions were initiated by addition of NADPH solution and terminated at predetermined time point (30 min) by addition of stop reagent (300 μL chilled acetonitrile containing 0.1 μM of 7-hydroxycoumarin as an internal standard). After incubation, microsomal proteins were precipitated by centrifugation at 3300×g for 15 min at 4° C. Supernatant fractions were analyzed by LC-MS/MS.
HPLC mass spectrometer system: An API4000 triple quadrupole mass spectrometer equipped with electrospray ionization ion source was used for quantitation and operated in positive mode. The HPLC system consisted of a CTC Analytics PAL autosampler, an Agilent 1100 series degasser (G1379A), and an Agilent 1100 series binary pump (G1312A). […]
The formation of M3, M3c, M4 and M6 from each atropisomer in liver microsomal and recombinant CYP incubations was determined, based on the peak area ratio of analyte over internal standard (IS)

[4] = Atropisomer interconversion, thermal challenge in organic solvent (acetonitrile); assay type: physicochemical
Experimental: as §1
Samples of each separate atropisomers were held at 60° C. for four days and then analyzed by high performance liquid chromatography (AGMS02 Agilent 1100) on a normal phase amylose-based chiral column (ChiralPak IA-3, 3 μm, 100×4.6 mm, column 244), using isocratic elution and UV detection at 226 nm (see example 1).

human URAT1 transporter = biological target: T1, human URAT1 transporter (Homo sapiens, UniProt Q96S37); assay: HEK293 hURAT1 stable cell-line uric acid uptake assay; assay type: cell-based; conditions: from IC50 values of table 5
T1 sequence (Q96S37 1-553): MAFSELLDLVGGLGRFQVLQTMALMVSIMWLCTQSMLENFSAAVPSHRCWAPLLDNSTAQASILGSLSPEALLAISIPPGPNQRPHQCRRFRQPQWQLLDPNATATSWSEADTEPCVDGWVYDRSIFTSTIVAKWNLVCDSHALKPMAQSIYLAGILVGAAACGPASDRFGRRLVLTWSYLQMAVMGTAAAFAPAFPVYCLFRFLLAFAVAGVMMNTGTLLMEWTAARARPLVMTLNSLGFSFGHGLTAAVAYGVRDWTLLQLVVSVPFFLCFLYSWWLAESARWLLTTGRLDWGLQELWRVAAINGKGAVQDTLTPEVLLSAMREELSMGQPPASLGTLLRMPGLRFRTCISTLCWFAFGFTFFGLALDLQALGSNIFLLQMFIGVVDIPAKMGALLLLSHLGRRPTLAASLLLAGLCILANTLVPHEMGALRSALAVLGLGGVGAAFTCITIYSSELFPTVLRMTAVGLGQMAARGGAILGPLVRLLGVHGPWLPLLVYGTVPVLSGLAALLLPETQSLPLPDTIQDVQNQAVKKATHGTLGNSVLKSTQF
Excerpt: Generation and Screening of HEK293 Stable Cell Lines—HEK293 human embryonic kidney cells (ATCC #CRL-1573, Manassas, Va.) were propagated in EMEM tissue culture medium as described by ATCC in an atmosphere of 5% CO2 and 95% air. HEK293 cells were transfected with the expression plasmids described above (pCMV6-neo URAT1 or pCMV6-neo OAT4) using Lipofectamine 2000 (Invitrogen, Carlsbad, Calif.), according to the manufacturer's instructions. The lipid/DNA transfection mixture was removed after five hours on the cells and fresh growth medium was added. After another 24 hr the cells were split into 10 cm plates. The next day G418 (Gibco, Carlsbad, Calif.) selection agent was added to the growth medium at a final concentration of 0.5 mg/ml. Fresh G418-containing medium was added every three days until drug-resistant colonies were obtained and also when the majority of mock-transfected cells were dead. […]
HEK293 hURAT 1 Stable Cell-Line Uric Acid Uptake Assay—Cells were seeded onto 96-well poly-D-lysine coated tissue culture plates at a density of 1.25×10^5 cells per well and grown at 37° C. overnight. […] Cells were lysed by adding 150 μl of MicroScint 20 scintillation fluid (PerkinElmer) to each well and radioactivity was counted the following day using a Beckman TopCount plate reader.
Calculation—The IC50 was calculated using Sigmoidal Dose-Response Model using XLFIT(IDBS, Alameda, Calif.).

[5] = plasma, geometric mean, single oral 400 mg racemic Compound (I), human
[6] = Plasma Concentration (Mean), single oral 400 mg racemic Compound (I), human
[7] = Urine PK Parameters (Geometric mean, CI 95%), single oral 400 mg racemic Compound (I), human

`O=C(O)CSc1nnc(Br)n1-c1ccc(C2CC2)c2ccccc12` (racemic) [Compound (I), 2-(5-bromo-4-(4-cyclopropylnaphthalen-1-yl)-4H-1,2,4-triazol-3-ylthio)acetic acid] showed a concentration at 0.5 h ([1]; male, human, plasma, po, 400 mg, 0.5 hr postdose, single oral 400 mg Compound (I) racemic mixture, adult male subjects) of 157 ng/mL, a concentration at 1 h ([1]; male, human, plasma, po, 400 mg, 1 hr postdose, single oral 400 mg Compound (I) racemic mixture, adult male subjects) of 3900 ng/mL and a concentration at 1.5 h ([1]; male, human, plasma, po, 400 mg, 1.5 hr postdose, single oral 400 mg Compound (I) racemic mixture, adult male subjects) of 7860 ng/mL. The concentration at 2 h ([1]; male, human, plasma, po, 400 mg, 2 hr postdose, single oral 400 mg Compound (I) racemic mixture, adult male subjects) was 9380 ng/mL, the concentration at 3 hr ([1]; male, human, plasma, po, 400 mg, 3 hr postdose, single oral 400 mg Compound (I) racemic mixture, adult male subjects) was 11400 ng/mL and the concentration at 4 hr ([1]; male, human, plasma, po, 400 mg, 4 hr postdose, single oral 400 mg Compound (I) racemic mixture, adult male subjects) was 9080 ng/mL. The concentration at 5 hr ([1]; male, human, plasma, po, 400 mg, 5 hr postdose, single oral 400 mg Compound (I) racemic mixture, adult male subjects) was 6980 ng/mL, the concentration at 6 hr ([1]; male, human, plasma, po, 400 mg, 6 hr postdose, single oral 400 mg Compound (I) racemic mixture, adult male subjects) was 3810 ng/mL and the concentration at 8 hr ([1]; male, human, plasma, po, 400 mg, 8 hr postdose, single oral 400 mg Compound (I) racemic mixture, adult male subjects) was 1530 ng/mL. It also gave a concentration at 10 hr ([1]; male, human, plasma, po, 400 mg, 10 hr postdose, single oral 400 mg Compound (I) racemic mixture, adult male subjects) of 815 ng/mL, a concentration at 12 hr ([1]; male, human, plasma, po, 400 mg, 12 hr postdose, single oral 400 mg Compound (I) racemic mixture, adult male subjects) of 503 ng/mL and a concentration at 24 h ([1]; male, human, plasma, po, 400 mg, 24 hr postdose, single oral 400 mg Compound (I) racemic mixture, adult male subjects) of 84 ng/mL. The AUC(0-t) ([1]; male, human, plasma, po, 400 mg, Plasma Concentration (Mean), single oral 400 mg racemic Compound (I), human, read-out: AUC0-24) was 54900 ng·h/mL, the Cmax ([1]; male, human, plasma, po, 400 mg, Plasma Concentration (Mean), single oral 400 mg racemic Compound (I), human, read-out: Cmax) was 13500 ng/mL and the Cmax ([1]; male, human, plasma, po, 400 mg, plasma, geometric mean, single oral 400 mg racemic Compound (I), human, read-out: Cmax: Maximum observed concentration) was 12800 ng/mL. For the same compound, the half-life ([1]; male, human, plasma, po, 400 mg, plasma, geometric mean, single oral 400 mg racemic Compound (I), human, read-out: t1/2: Apparent terminal half-life (converted)) was 4.18 h, the concentration at 0 h ([1]; male, human, plasma, po, 400 mg, time 0 hr (prior to dosing), single oral 400 mg Compound (I) racemic mixture, adult male subjects) was 0 ng/mL and the Tmax ([1]; male, human, plasma, po, 400 mg, read-out: Tmax: Time of occurrence of maximum observed concentration) was 3 h. For the same compound, the “AUC0-24: Area under plasma concentration-vs-time curve, from time 0 to 24 hours postdose” value [1, 5] was 52.9 µg·h/mL and the Solubility in water (Solubility in water) was “low”.

`O=C(O)CSc1nnc(Br)n1-c1ccc(C2CC2)c2ccccc12` (single isomer, unassigned) [Atropisomer 2, (+)-2-(5-bromo-4-(4-cyclopropylnaphthalen-1-yl)-4H-1,2,4-triazol-3-ylthio)acetic acid] showed a Mean plasma concentration ([1]; 0.5 hr postdose, single oral 400 mg Compound (I) racemic mixture, adult male subjects) of 108 ng/mL, a Mean plasma concentration ([1]; 1 hr postdose, single oral 400 mg Compound (I) racemic mixture, adult male subjects) of 2573 ng/mL and a Mean plasma concentration ([1]; 1.5 hr postdose, single oral 400 mg Compound (I) racemic mixture, adult male subjects) of 4975 ng/mL. The Mean plasma concentration ([1]; 2 hr postdose, single oral 400 mg Compound (I) racemic mixture, adult male subjects) was 5765 ng/mL, the Mean plasma concentration ([1]; 3 hr postdose, single oral 400 mg Compound (I) racemic mixture, adult male subjects) was 6921 ng/mL and the Mean plasma concentration ([1]; 4 hr postdose, single oral 400 mg Compound (I) racemic mixture, adult male subjects) was 5577 ng/mL. For the same compound, the Mean plasma concentration ([1]; 5 hr postdose, single oral 400 mg Compound (I) racemic mixture, adult male subjects) was 4314 ng/mL, the Mean plasma concentration ([1]; 6 hr postdose, single oral 400 mg Compound (I) racemic mixture, adult male subjects) was 2322 ng/mL and the Mean plasma concentration ([1]; 8 hr postdose, single oral 400 mg Compound (I) racemic mixture, adult male subjects) was 918 ng/mL. It also gave a Mean plasma concentration ([1]; 10 hr postdose, single oral 400 mg Compound (I) racemic mixture, adult male subjects) of 495 ng/mL, a Mean plasma concentration ([1]; 12 hr postdose, single oral 400 mg Compound (I) racemic mixture, adult male subjects) of 309 ng/mL and a Mean plasma concentration ([1]; 24 hr postdose, single oral 400 mg Compound (I) racemic mixture, adult male subjects) of 63 ng/mL. The AUC0-24 [1, 6] was 33800 ng·h/mL, the Cmax [1, 6] was 8200 ng/mL and the Ae0-24 [1, 7] was 101 mg. The CLR0-24 [1, 7] was 51.6 mL/min, the “AUC0-24: Area under plasma concentration-vs-time curve, from time 0 to 24 hours postdose” value [1, 5] was 32.7 µg·h/mL and the “C24 h: Concentration 24 hours post dose” value [1, 5] was 50.8 ng/mL. For the same compound, the “Cmax: Maximum observed concentration” value [1, 5] was 7920 ng/mL, the “t1/2: Apparent terminal half-life” value [1, 5] was 4.67 h and the “Tmax: Time of occurrence of maximum observed concentration” value ([1]; plasma, single oral 400 mg racemic Compound (I), human) was 3.00 h. The Mean plasma concentration ([1]; time 0 hr (prior to dosing), single oral 400 mg Compound (I) racemic mixture, adult male subjects) was 0 ng/mL, the “% Atropisomer 1” value ([2]; 60° C. 4 days) was 0.4% and the “% Atropisomer 2” value ([2]; 60° C. 4 days) was 99.6%. For the same compound, the “% Atropisomer 1” value ([2]; 100° C. 4 days) was 0.6%, the “% Atropisomer 2” value ([2]; 100° C. 4 days) was 99.4% and the “% Atropisomer 1” value ([2]; rt, 4 days) was 0.4%. The “% Atropisomer 2” value ([2]; rt, 4 days) was 99.6%, the “% Atropisomer 1” value ([2]; t0 (control)) was 0.4% and the “% Atropisomer 2” value ([2]; t0 (control)) was 99.6%. The M3c formation [3] was “only trace levels”, the “% Atropisomer 1” value ([4]; acetonitrile 0.25 mg/mL, t0) was 1.0% and the “% Atropisomer 2” value ([4]; acetonitrile 0.25 mg/mL, t0) was 99.0%. The “% Atropisomer 1” value ([4]; acetonitrile, 60° C. 4 days) was 1.0%, the “% Atropisomer 2” value ([4]; acetonitrile, 60° C. 4 days) was 99.0% and the “Greater inhibition of URAT1 than atropisomer 1” value (human URAT1 transporter) was “approximately 4 fold”.
